Test results taken from patent US20250268920A1, “USE OF ANDROGEN RECEPTOR-MEDIATED MECHANISMS IN THE TREATMENT OF ACUTE MYELOID LEUKEMIA” (The Penn State Research Foundation, priority 2022, published 2025).
Where two headings read alike, the source gives them in different places.

Legend:
female AML donor cells [1] = assay type: in vivo, mice
Text: (§1) To obtain the results shown in FIG. 1, we isolated bone marrow cells from CD45.1 male mice (FIG. 1A) and CD45.1 female mice (FIG. 1B). Bone marrow cells were applied to hematopoietic stem/progenitor cell isolation using a kit (EasySep™ mouse hematopoietic progenitor cell isolation kit, […], Catalog #19856) followed by red blood cell lysis. Lineage negative (Lin^−) cells were stained with fluorescent antibodies including Sca-1 and c-Kit and then sent to a Beckman Coulter MoFlo Astrios EQ Cell Sorter for sorting Sca-1^+c-Kit^+ cells. These cells were cultured in a CO2 incubator at 37° C. in the presence of MLL-AF9 virus (for AML) for six hours and then injected retro-orbitally into CD45.2 recipient mice. Recipients received sublethal irradiation (475 rads) and 1.5˜3.5×10^5 Lin^−Sca-1^+c-Kit^+ hematopoietic stem cells (HSCs). Mice were monitored for complete cell counts by bleeding retro-orbitally one month post transplantation. Retro-orbital bleeding was performed weekly.
To test the effect of AR inhibition on the outcome of AML, we utilized the AR antagonist, ARN509, to treat female mice transplanted with female AML donor cells. (FIG. 7A) Following one week post-secondary) (2° transplantation of AML cells from female donors into female recipients, the recipient mice were treated with ARN509 (0, 10, 25 mg/kg/d, i.p. injection) daily for two weeks.

female AML donor cells [2] = assay type: in vivo, mice; remark: listed apart in the source
Text: as §1
To address if ARN509 therapy preferentially benefitted AML in female mice, we performed an experiment in which male recipient mice transplanted with female AML donors cells were treated with AR antagonist, ARN509.
(FIG. 8A) Following one week post 2° transplantation of AML cells from female donors into male recipients, we treated the mice with ARN509 (0, 10, 25 mg/kg/d, i.p. injection) for two weeks.

female AML donor cells [3] = test: Survival of female recipients transplanted with female AML donors treated in vitro with ARN509; assay type: in vivo, mice; settings: female AML donors treated in vitro with ARN509 150 nM, 24 h, transplanted into female recipients (FIG. 7J)
female AML donor cells [4] = test: Survival of male recipients transplanted with female AML donors treated in vitro with ARN509; assay type: in vivo, mice; settings: female AML donors treated in vitro with ARN509 150 nM, 24 h, transplanted into male recipients (FIG. 8J)
female AML donor cells [5] = test: In vivo ARN509 alone or combined with finasteride in male mice transplanted with female AML donor cells; settings: single ARN509 10 mg/kg/d i.p. for two weeks; male recipients
Experimental: (FIG. 11A) At one week post 2° transplantation of female AML donors into male recipients, the mice were treated with vehicle (PBS), ARN509 (10 mg/kg/d, i.p. injection), or combination of ARN509 (10 mg/kg/d, i.p. injection) and finasteride (20 mg/kg/d, i.p. injection), for two weeks.

female AML cells = test: In vitro apoptosis of female AML cells (Annexin V staining); assay type: cell-based, mouse; settings: Annexin V staining (FIG. 4B, 4C)
Text: as §1
(§2) To obtain the results, isolated female AML cells were treated in vitro with PI3K inhibitors (LY294002 and Wortmannin), Akt inhibitor, MTOR inhibitors (Sapanisertib and Torin1).

P70 S6K = test: In vitro treatment of female AML cells: phosphorylation of downstream target P70 S6K; assay type: cell-based, mouse; settings: isolated female AML cells treated in vitro (FIG. 4A)
Text: as §1, §2

female AML donor cells [6] = test: In vivo finasteride treatment of female mice transplanted with female AML donor cells
Experimental: To mirror the patient scenario, we performed the experiment on female recipients transplanted with female AML donor cells.
(FIG. 12A) At one week after 2° transplantation of female AML donors to female recipients, we treated the mice with vehicle (PBS) or finasteride (20 mg/kg/d, i.p. injection) for two weeks.

male AML donor cells = test: In vivo finasteride treatment of male mice transplanted with male AML donor cells; settings: for Survival: male AML donors (FIG. 10J)
Text: as §1
(FIG. 10A) Upon 2° transplantation of male AML donors to male recipients, the recipient mice were treated with vehicle (PBS) or finasteride (50 mg/kg/d, i.p. injection) for one week. Then at three weeks post transplantation, mice were euthanized. […] Moreover, to observe the therapeutic effect of finasteride, we treated male recipients transplanted with male AML donors (mirroring the clinical patients) with in vivo finasteride for two weeks or extended it to four weeks (FIG. 10I). […] Thus, the disclosure includes adjusting the treatment period for male (and female) AML patients.

[7] = finasteride 20 mg/kg/d i.p. for two weeks, female recipients
[8] = finasteride 50 mg/kg/d i.p. for one week, male recipients

CNC(=O)c1ccc(N2C(=S)N(c3cnc(C#N)c(C(F)(F)F)c3)C(=O)C23CCC3)cc1F [ARN509, Apalutamide]
Lin− leukemic cells in the bone marrow (female AML donor cells [1]; 25 mg/kg/d ARN509, female recipients (FIG. 7D)): decreased significantly | Lin− leukemic cells in the spleen (female AML donor cells [1]; 25 mg/kg/d ARN509, female recipients (FIG. 7E)): decreased significantly | LICs (leukemia-initiating cells) (female AML donor cells [1]; 25 mg/kg/d ARN509, female recipients (FIG. 7F, 7G)): decreased significantly | Severity of AML (female AML donor cells [1]; ARN509 0, 10, 25 mg/kg/d i.p. daily for two weeks from one week post transplantation, female recipients): decreased the severity of AML in a dose-dependent manner | Leukocytosis (female AML donor cells [1]; ARN509 0, 10, 25 mg/kg/d i.p., two weeks, female recipients (FIG. 7B)): improved leukocytosis | Splenomegaly (female AML donor cells [1]; ARN509 0, 10, 25 mg/kg/d i.p., two weeks, female recipients (FIG. 7C)): improved | Platelets in the peripheral blood (female AML donor cells [1]; mouse, in vivo): increase | Side effects (female AML donor cells [1]; mouse, in vivo): no apparent side effects | Lin− leukemic cells in the bone marrow (female AML donor cells [2]; 25 mg/kg/d ARN509, male recipients (FIG. 8D)): decreased significantly | Lin− leukemic cells in the spleen (female AML donor cells [2]; 25 mg/kg/d ARN509, male recipients (FIG. 8E)): decreased significantly | LICs (leukemia-initiating cells) (female AML donor cells [2]; 25 mg/kg/d ARN509, male recipients (FIG. 8F, 8G)): decreased significantly | Severity of AML (female AML donor cells [2]; ARN509 0, 10, 25 mg/kg/d i.p. for two weeks from one week post transplantation, male recipients): decreased the severity of AML in a dose-dependent manner | Leukocytosis (female AML donor cells [2]; ARN509 0, 10, 25 mg/kg/d i.p., two weeks, male recipients (FIG. 8B)): improved leukocytosis | Splenomegaly (female AML donor cells [2]; ARN509 0, 10, 25 mg/kg/d i.p., two weeks, male recipients (FIG. 8C)): improved | Body weight (female AML donor cells [2]; mouse, in vivo): unchanged | Platelets in the peripheral blood (female AML donor cells [2]; mouse, in vivo): increase | Side effects (female AML donor cells [2]; mouse, in vivo): no apparent side effects | Survival (female AML donor cells [3]): significantly better survival | Survival (female AML donor cells [4]): some improvement of survival | Anti-leukemic effect (female AML donor cells [5]): not able to induce significant anti-leukemic effect | Apoptosis of female AML cells (female AML cells): led to apoptosis of female AML cells

CCC(=O)N1CCN(c2ccc(-n3c(=O)ccc4cnc5ccc(-c6cnc7ccccc7c6)cc5c43)cc2C(F)(F)F)CC1 [Torin1]
Phosphorylation of the downstream target P70 S6K (P70 S6K): down-regulated | Apoptosis of female AML cells (female AML cells): induced apoptosis of female AML cells significantly

CC(C)(C)NC(=O)[C@H]1CC[C@H]2[C@@H]3CC[C@H]4NC(=O)C=C[C@]4(C)[C@H]3CC[C@]12C [finasteride, Finasteride]
Leukocytosis (female AML donor cells [6]; finasteride 20 mg/kg/d i.p. for two weeks from one week after transplantation, female recipients (FIG. 12B)): significantly improve | LICs in the bone marrow (female AML donor cells [6]; [7]): decreased | LICs in the spleen (female AML donor cells [6]; [7]): decreased | Lin− leukemic cells in the bone marrow (female AML donor cells [6]; [7]): decreased | Lin− leukemic cells in the spleen (female AML donor cells [6]; [7]): decreased | Splenomegaly (female AML donor cells [6]; finasteride 20 mg/kg/d i.p. for two weeks, female recipients (FIG. 12C)): significantly improve | Survival (female AML donor cells [6]; in vivo finasteride treatment, female recipients, female AML donors (FIG. 12K)): benefitted the survival | Generation of DHT (male AML donor cells; finasteride 50 mg/kg/d i.p. for one week, euthanized three weeks post transplantation (FIG. 10B)): decreased generation of DHT | LICs in the bone marrow (male AML donor cells; [8]): decreased | LICs in the spleen (male AML donor cells; [8]): decreased | Lin− leukemic cells in the bone marrow (male AML donor cells; [8]): decreased | Lin− leukemic cells in the spleen (male AML donor cells; [8]): decreased | Leukocytosis (male AML donor cells; finasteride 50 mg/kg/d i.p. for one week, male recipients (FIG. 10C)): significantly improved | Splenomegaly (male AML donor cells; finasteride 50 mg/kg/d i.p. for one week, male recipients (FIG. 10D)): significantly improved | Survival (male AML donor cells; four-week in vivo finasteride treatment, male recipients): significantly improved the survival | Survival (male AML donor cells; two-week in vivo finasteride treatment, male recipients): partially benefited the survival
